{"source": "patent US8735140B2", "about": "“Preservation and composition of bioprocess algae for production of lipids, seedstock, and feed” (Kuehnle AgroSystems, Inc., priority 2008, dated 2014)", "assay_in_all_cases": "Trehalose preservation, pretreatment with 0.5M sorbitol and embedding in alginate mat", "format_in_all_cases": "cell-based", "key": {"[1]": {"tested_on": "Chlorella KAS503", "settings": "for % viability after storage & rejuvenation / Cell recovery after storage, relative to control: 0M control = 100%; for Cell number after 21 weeks in storage & rejuvenation: 3 weeks rejuvenation; for Growth after storage & rejuvenation: 21 weeks + 3 weeks rejuvenation; for Cell recovery after storage, relative to control: 21 weeks", "description": "(§1) Cells in 40 ml flask cultures are grown to mid-log phase with a density of between 3×10^6 and 3×10^7 cells/ml, and are centrifuged. Culture medium is removed after centrifugation, resulting in more concentrated algae cells. Cells are then re-suspended in ideal glass solution consisting of fresh culture medium and trehalose at a concentration of 0.1M, 0.3M, and 0.5M (dihydrate trehalose 100 from Hayashibara Co. Ltd, Okayama, Japan), respectively, and left overnight with mild agitation. Cells are centrifuged again to remove the ideal glass solution the next day, and are re-suspended in fresh or salt water without any nutrient. The cell density of the resulting suspension is determined prior to storage under the various treatments. (Some cells were also treated with a 0.5M sorbitol solution). In one specific embodiment, 2% (w/v) alginate solution (Sigma-Aldrich A-2033) and 3% CaCl2 solution (Sigma-Aldrich C1016) are prepared in salt water or fresh water medium as required by specific algae species, and autoclave sterilized. Then, 2.0 ml 2% alginate solution is pipetted into each well of a BD Falcon 12-well plate. 0.2 ml algae cell suspension is then pipetted into each well and the mixture is further stirred. The alginate-cell mixture is further sprayed with 3% CaCl2 solution in a sterile pump bottle, allowing the alginate to solidify. After solidification, plates are closed and placed under low light and at ambient temperature. After stored under the above preservation conditions for 5 months, algae cells can be rejuvenated by overlaying alginate/algae mixture with 3.0 ml sterile 5.0% NaPolyphosphate (Sigma Aldrich 305553) and allowing to the mixture sit overnight. The algae/alginate/NaPolyphosphate mixture is then removed from the 12-well plate, diluted with fresh medium (3 parts fresh medium to 1 part cell suspension) and placed under light. In one specific embodiment, cells are treated with trehalose solution at various concentrations and left overnight. Cells are centrifuged the next day to remove the trehalose solution, and then re-suspended in sterile 0.5M D-sorbitol (Fisher Scientific […]) dissolved in salt or fresh-water medium as required by specific algae species. Cells are left to stand for 2 hours with mild agitation. After 2 hours, cells are centrifuged again to remove the 0.5M sorbitol solution and re-suspended in fresh or salt-water medium. Cells are counted after the re-suspension. Cell viability is determined by comparing the cell growth in control set with the experimental set. Specifically, cell counts are performed on all samples. The averaged density value (in cells per ml) for all the cultures after treatment is defined as “rejuvenation cell count.” In some samples, the percent recovery of cells immediately after storage is also determined. The formulae are illustrated as follows: Growth=(rejuvenation cell count)/(initial cell count) Cell recovery after storage=(cell density after storage)/(initial cell density), with controls set at 100% cell recovery. Viability after storage and rejuvenation in nutrient medium=(Growth of treatment)/(Growth of control)×100%, with controls set at 100% viability"}, "[2]": {"tested_on": "Chlorella KAS603", "settings": "for % viability after storage & rejuvenation / Cell recovery after storage, relative to control: 0M control = 100%; for Cell number after 21 weeks in storage & rejuvenation: 3 weeks rejuvenation; for Growth after storage & rejuvenation: 21 weeks + 3 weeks rejuvenation", "description": "as §1"}, "[3]": {"tested_on": "Synechocystis KAS635", "settings": "for % viability after storage & rejuvenation / Cell recovery after storage, relative to control: 0M control = 100%; for Cell number after 21 weeks in storage & rejuvenation: 3 weeks rejuvenation; for Cell recovery after storage / Cell recovery after storage, relative to control: 21 weeks; for Growth after storage & rejuvenation: 21 weeks + 3 weeks rejuvenation", "description": "as §1"}, "[4]": {"tested_on": "Tetraselmis KAS633", "settings": "for % viability after storage & rejuvenation / Cell recovery after storage, relative to control: 0M control = 100%; for Cell number after 21 weeks in storage & rejuvenation: 3 weeks rejuvenation; for Growth after storage & rejuvenation: 21 weeks + 3 weeks rejuvenation; for Cell recovery after storage, relative to control: 21 weeks", "description": "as §1"}, "[5]": {"settings": "0.1M trehalose in F/2, 0.5M sorbitol pretreatment"}, "[6]": {"settings": "0.3M trehalose in F/2, 0.5M sorbitol pretreatment"}, "[7]": {"settings": "0.5M trehalose in F/2, 0.5M sorbitol pretreatment"}, "[8]": {"settings": "0.1M trehalose in F/2, 0.5M sorbitol pretreatment, 21 weeks"}, "[9]": {"settings": "0.1M trehalose in BG11, 0.5M sorbitol pretreatment"}, "[10]": {"settings": "0.3M trehalose in BG11, 0.5M sorbitol pretreatment"}, "[11]": {"settings": "0.5M trehalose in BG11, 0.5M sorbitol pretreatment"}}, "data": [{"smiles": "OC[C@H]1O[C@H](O[C@H]2O[C@H](CO)[C@@H](O)[C@H](O)[C@H]2O)[C@H](O)[C@@H](O)[C@@H]1O", "note": "[trehalose, α-D-glycosyl-α-D-glycosylpyranoside]", "values": [{"measurement": "Cell number after 21 weeks in storage", "setting": "[1]; [5]", "result": "1.163 × 10^7"}, {"measurement": "% viability after storage & rejuvenation", "setting": "[1]; [5]", "result": "(51%)"}, {"measurement": "Cell number after 21 weeks in storage & rejuvenation", "setting": "[1]; [5]", "result": "1.03 × 10^7 cells/ml"}, {"measurement": "Growth after storage & rejuvenation", "setting": "[1]; [5]", "result": 0.89}, {"measurement": "Cell recovery after storage, relative to control", "setting": "[1]; [5]", "result": "(227%)"}, {"measurement": "Cell number after 21 weeks in storage", "setting": "[1]; [6]", "result": "8.097 × 10^6"}, {"measurement": "% viability after storage & rejuvenation", "setting": "[1]; [6]", "result": "(148%)"}, {"measurement": "Cell number after 21 weeks in storage & rejuvenation", "setting": "[1]; [6]", "result": "2.080 × 10^7 cells/ml"}, {"measurement": "Growth after storage & rejuvenation", "setting": "[1]; [6]", "result": 2.57}, {"measurement": "Cell recovery after storage, relative to control", "setting": "[1]; [6]", "result": "(226%)"}, {"measurement": "Cell number after 21 weeks in storage", "setting": "[1]; [7]", "result": "8.589 × 10^6"}, {"measurement": "% viability after storage & rejuvenation", "setting": "[1]; [7]", "result": "(132%)"}, {"measurement": "Cell number after 21 weeks in storage & rejuvenation", "setting": "[1]; [7]", "result": "1.959 × 10^7 cells/ml"}, {"measurement": "Growth after storage & rejuvenation", "setting": "[1]; [7]", "result": 2.28}, {"measurement": "Cell recovery after storage, relative to control", "setting": "[1]; [7]", "result": "(231%)"}, {"measurement": "Cell number after 21 weeks in storage", "setting": "[2]; [5]", "result": "1.920 × 10^7"}, {"measurement": "% viability after storage & rejuvenation", "setting": "[2]; [5]", "result": "(105)%"}, {"measurement": "Cell number after 21 weeks in storage & rejuvenation", "setting": "[2]; [5]", "result": "3.102 × 10^7 cells/ml"}, {"measurement": "Cell recovery after storage", "setting": "[2]; [8]", "result": 1.76}, {"measurement": "Growth after storage & rejuvenation", "setting": "[2]; [5]", "result": 1.62}, {"measurement": "Cell recovery after storage, relative to control", "setting": "[2]; [8]", "result": "(61%)"}, {"measurement": "Cell number after 21 weeks in storage", "setting": "[2]; [6]", "result": "2.378 × 10^7"}, {"measurement": "% viability after storage & rejuvenation", "setting": "[2]; [6]", "result": "(139)%"}, {"measurement": "Cell number after 21 weeks in storage & rejuvenation", "setting": "[2]; [6]", "result": "5.099 × 10^7 cells/ml"}, {"measurement": "Growth after storage & rejuvenation", "setting": "[2]; [6]", "result": 2.14}, {"measurement": "Cell recovery after storage, relative to control", "setting": "[2]; 0.3M trehalose in F/2, 0.5M sorbitol pretreatment, 21 weeks", "result": "(123%)"}, {"measurement": "Cell number after 21 weeks in storage", "setting": "[2]; [7]", "result": "2.113 × 10^7"}, {"measurement": "% viability after storage & rejuvenation", "setting": "[2]; [7]", "result": "(160%)"}, {"measurement": "Cell number after 21 weeks in storage & rejuvenation", "setting": "[2]; [7]", "result": "5.197 × 10^7 cells/ml"}, {"measurement": "Growth after storage & rejuvenation", "setting": "[2]; [7]", "result": 2.46}, {"measurement": "Cell recovery after storage, relative to control", "setting": "[2]; 0.5M trehalose in F/2, 0.5M sorbitol pretreatment, 21 weeks", "result": "(155%)"}, {"measurement": "Cell number after 21 weeks in storage", "setting": "[3]; [9]", "result": "1.275 × 10^7"}, {"measurement": "% viability after storage & rejuvenation", "setting": "[3]; [9]", "result": "(87%)"}, {"measurement": "Cell number after 21 weeks in storage & rejuvenation", "setting": "[3]; [9]", "result": "2.436 × 10^7 cells/ml"}, {"measurement": "Cell recovery after storage", "setting": "[3]; [9]", "result": 0.39}, {"measurement": "Growth after storage & rejuvenation", "setting": "[3]; [9]", "result": 1.91}, {"measurement": "Cell recovery after storage, relative to control", "setting": "[3]; [9]", "result": "(106%)"}, {"measurement": "Cell number after 21 weeks in storage", "setting": "[3]; [10]", "result": "1.421 × 10^7"}, {"measurement": "% viability after storage & rejuvenation", "setting": "[3]; [10]", "result": "(144%)"}, {"measurement": "Cell number after 21 weeks in storage & rejuvenation", "setting": "[3]; [10]", "result": "4.495 × 10^7 cells/ml"}, {"measurement": "Cell recovery after storage", "setting": "[3]; [10]", "result": 0.42}, {"measurement": "Growth after storage & rejuvenation", "setting": "[3]; [10]", "result": 3.16}, {"measurement": "Cell recovery after storage, relative to control", "setting": "[3]; [10]", "result": "(114%)"}, {"measurement": "Cell number after 21 weeks in storage", "setting": "[3]; [11]", "result": "2.023 × 10^7"}, {"measurement": "% viability after storage & rejuvenation", "setting": "[3]; [11]", "result": "(80%)"}, {"measurement": "Cell number after 21 weeks in storage & rejuvenation", "setting": "[3]; [11]", "result": "3.560 × 10^7 cells/ml"}, {"measurement": "Cell recovery after storage", "setting": "[3]; [11]", "result": 0.72}, {"measurement": "Growth after storage & rejuvenation", "setting": "[3]; [11]", "result": 1.76}, {"measurement": "Cell recovery after storage, relative to control", "setting": "[3]; [11]", "result": "(195%)"}, {"measurement": "Cell number after 21 weeks in storage", "setting": "[4]; [5]", "result": "2.831 × 10^6"}, {"measurement": "% viability after storage & rejuvenation", "setting": "[4]; [5]", "result": "(104%)"}, {"measurement": "Cell number after 21 weeks in storage & rejuvenation", "setting": "[4]; [5]", "result": "1.163 × 10^7 cells/ml"}, {"measurement": "Growth after storage & rejuvenation", "setting": "[4]; [5]", "result": 4.1}, {"measurement": "Cell recovery after storage, relative to control", "setting": "[4]; [5]", "result": "(78%)"}, {"measurement": "Cell number after 21 weeks in storage", "setting": "[4]; [6]", "result": "2.276 × 10^6"}, {"measurement": "% viability after storage & rejuvenation", "setting": "[4]; [6]", "result": "(158%)"}, {"measurement": "Cell number after 21 weeks in storage & rejuvenation", "setting": "[4]; [6]", "result": "1.420 × 10^7 cells/ml"}, {"measurement": "Growth after storage & rejuvenation", "setting": "[4]; [6]", "result": 6.23}, {"measurement": "Cell recovery after storage, relative to control", "setting": "[4]; [6]", "result": "(80%)"}, {"measurement": "Cell number after 21 weeks in storage", "setting": "[4]; [7]", "result": "1.899 × 10^6"}, {"measurement": "% viability after storage & rejuvenation", "setting": "[4]; [7]", "result": 186, "unit": "%"}, {"measurement": "Cell number after 21 weeks in storage & rejuvenation", "setting": "[4]; [7]", "result": "1.399 × 10^7 cells/ml"}, {"measurement": "Growth after storage & rejuvenation", "setting": "[4]; [7]", "result": 7.34}, {"measurement": "Cell recovery after storage, relative to control", "setting": "[4]; [7]", "result": "(58%)"}]}]}
